Values joined by “and” are separate entries in the source; they are usually repeats but may differ in a detail not shown here. Identical values can stand only once. Like-named read-outs stand apart in the source and are kept apart here.
Columns and labels:
[1] = test system: HepG2 cells; details: cited from earlier work; for EC50: read-out: Literature-Reported EC50
[2] = test system: HepG2 cells; assay: LipidTOX Red PLD assay, qHTS, 1536-well high-content imaging; assay type: cell-based, Human; details: for PLD induction (result in words): HepG2, primary screen and cherry-pick confirmation; for EC50: Homo sapiens; for EC50 / Primary Screen Efficacy: HepG2, 24 h; for Primary Screen Efficacy: LOPAC primary qHTS, % of PLD induction by 19.16 µM amiodarone
[3] = test system: HepG2 cells; assay: CellTiter-Glo cell viability assay; assay type: cell-based, Human; details: for Cell Viability Efficacy (maximum inhibition of cell viability) / Cell Viability IC50: HepG2, 24 h treatment, mean ± SD of three experiments; for IC50: Homo sapiens, HepG2, 24 h, read-out: Cell Viability IC50
[4] = test system: I13-35 cells; details: read-out: Literature-Reported EC50, cited from earlier work
[5] = test system: H4 cells; details: cited from earlier work
[6] = test system: Rat brain; details: cited from earlier work
[7] = test system: hERG channel; details: cited from earlier work
[8] = read-out: Confirmation EC50 (PLD induction)
[9] = read-out: Primary Screen EC50 (PLD induction)

Molecule: CN1CCN(C2=Nc3cc(Cl)ccc3Nc3ccccc32)CC1 [Clozapine]
- Literature-Reported: Active at (concentration) [1]: Active at 16 µM

Molecule: CN1CCC(=C2c3ccccc3C=Cc3ccccc32)CC1 [cyproheptadine]
- PLD induction (result in words) [2]: identified as novel PLD inducers

Molecule: CN(C)CCC=C1c2ccccc2COc2ccccc21 [Doxepin]
- Literature-Reported: Active at (concentration) [1]: Active at 25 µM

Molecule: CC(C(O)c1ccc(O)cc1)N1CCC(Cc2ccccc2)CC1 (centres unmarked) [Ifenprodil]
- Cell Viability Efficacy (maximum inhibition of cell viability) [3]: 25.5±0.8%
- IC50 [3]: 21.1 ± 1.7 µM
- EC50 [2, 8]: 12.3 ± 6.7 µM
- EC50 [2, 9]: 7.9 µM

Molecule: CC(C)NCC(O)COc1cccc2ccccc12 (racemic) [(±)-Propranolol]
- Cell Viability IC50 [3]: Inactive

Molecule: COc1cc2nc(N3CCN(C(=O)OCc4ccccc4)[C@H](C(=O)NC(C)(C)C)C3)nc(N)c2cc1OC [L-765,314]
- Cell Viability Efficacy (maximum inhibition of cell viability) [3]: 115.2±0.3%
- Primary Screen Efficacy [2]: 54.1%

Molecule: CC(C)(C)[C@]1(O)CCN2C[C@H]3c4ccccc4CCc4cccc(c43)[C@@H]2C1 [(+)-Butaclamol]
- Cell Viability Efficacy (maximum inhibition of cell viability) [3]: 47.2±18.3%
- IC50 [3]: 47.8 ± 32.2 µM

Molecule: CSc1ccc2c(c1)C(N1CCN(C)CC1)Cc1ccccc1S2 (centres unmarked) [Methiothepin]
- Cell Viability Efficacy (maximum inhibition of cell viability) [3]: 121.8±9.0%
- Primary Screen Efficacy [2]: 76.9%

Molecule: CN(C)CCCN1c2ccccc2Sc2ccc(Cl)cc21 [Chlorpromazine]
- EC50 ([4]; I13-35 cells): 4.1 µM
- EC50 [2, 8]: 5.4 ± 1.9 µM
- EC50 [2, 9]: 10 µM

Molecule: CN1CCC[C@@H]1CCO[C@](C)(c1ccccc1)c1ccc(Cl)cc1 [clemastine]
- PLD induction (result in words) [2]: significantly induced PLD formation

Molecule: CN1CCN(CCCN2c3ccccc3Sc3ccc(C(F)(F)F)cc32)CC1 [trifluoperazine]
- PLD induction (result in words) [2]: positive

Molecule: CN(C)CCCC1(c2ccc(F)cc2)OCc2cc(C#N)ccc21 (centres unmarked) [Citalopram]
- EC50 ([4]; I13-35 cells): 38 µM
- EC50 [2, 8]: 27.5 ± 3.1 µM
- EC50 [2, 9]: 10 µM

Molecule: CN(C)CCCN1c2ccccc2Sc2ccccc21 [Promazine]
- EC50 ([4]; I13-35 cells): 5.3 µM
- EC50 [2, 8]: 5.7 ± 1.9 µM
- EC50 [2, 9]: 22.4 µM

Molecule: OCCN1CCN(CCCN2c3ccccc3C=Cc3ccccc32)CC1 [opipramol]
- PLD induction (result in words) [2]: identified as novel PLD inducers

Molecule: CN(C)C/C=C(/c1ccc(Br)cc1)c1cccnc1 [Zimelidine]
- EC50 ([4]; I13-35 cells): 30.4 µM
- EC50 [2, 8]: 27.4 ± 1.5 µM
- EC50 [2, 9]: 14.1 µM

Molecule: CN1CCN(c2nc3cc(C(F)(F)F)ccc3n3cccc23)CC1 [CGS-12066A]
- Cell Viability Efficacy (maximum inhibition of cell viability) [3]: 56.7±13.3%
- Primary Screen Efficacy [2]: 103.7%

Molecule: Fc1ccc([C@@H]2CCNC[C@H]2COc2ccc3c(c2)OCO3)cc1 [Paroxetine]
- Literature-Reported: Active at (concentration) [5]: Active at 5 µM
- PLD induction (result in words) [2]: induce PLD
- EC50 [2, 8]: 3 ± 0.7 µM
- EC50 [2, 9]: 5.6 µM

Molecule: aminobenzotropine
- PLD induction (result in words) [2]: significantly induced PLD formation

Molecule: CCN(CC)CCCC(C)Nc1c2ccc(Cl)cc2nc2ccc(OC)cc12 (centres unmarked) [Quinacrine]
- Literature-Reported: Active at (dose) [6]: Active at 60 mg/kg
- PLD induction (result in words) [2]: induce PLD
- EC50 [2, 8]: 1 ± 0.2 µM
- EC50 [2, 9]: 5 µM

Molecule: CN(C)CCC=C1c2ccccc2C=Cc2ccccc21 [cyclobenzaprine]
- PLD induction (result in words) [2]: identified as novel PLD inducers

Molecule: C[C@@H]1O[C@@H](O[C@H]2C[C@@H](O)[C@]3(CO)[C@H]4[C@H](O)C[C@]5(C)[C@@H](C6=CC(=O)OC6)CC[C@]5(O)[C@@H]4CC[C@]3(O)C2)[C@H](O)[C@H](O)[C@H]1O [Ouabain]
- Cell Viability Efficacy (maximum inhibition of cell viability) [3]: 43.6±1.1%
- Cell Viability Efficacy (maximum inhibition of cell viability) ([3]; listed as ouabain): 42%
- IC50 [3]: 0.2 µM
- EC50 [2, 8]: 3 ± 1.8 µM
- EC50 [2, 9]: 0.4 µM

Molecule: CN(C)CCCN1c2ccccc2CCc2ccccc21 [Imipramine]
- EC50 ([4]; I13-35 cells): 21 µM
- EC50 [2, 8]: 20.8 ± 6.9 µM
- EC50 [2, 9]: 10 µM

Molecule: CN(C)CC/C=C1/c2ccccc2Sc2ccc(Cl)cc21 [chlorprothixene]
- PLD induction (result in words) [2]: significantly induced PLD formation

Molecule: CC(CN1c2ccccc2Sc2ccccc21)N(C)C (centres unmarked) [promethazine]
- PLD induction (result in words) [2]: positive

Molecule: COc1ccccc1N1CCN(CCCCN2C(=O)c3ccccc3C2=O)CC1 [NAN-190]
- Cell Viability IC50 [3]: Inactive
- PLD induction (result in words) [2]: significantly induced PLD formation
- EC50 [2, 8]: 2 ± 0.3 µM
- EC50 [2, 9]: 2.2 µM

Molecule: CN1CCN(C2Cc3ccccc3Sc3ccc(Cl)cc32)CC1.O=C(O)/C=C\C(=O)O (centres unmarked) [Octoclothepin]
- Cell Viability Efficacy (maximum inhibition of cell viability) [3]: 121.0±4.9%
- Primary Screen Efficacy [2]: 135.0%

Molecule: CC12CC3CC(C)(C1)CC(N)(C3)C2 [Memantine]
- EC50 ([4]; I13-35 cells): 93.7 µM
- EC50 [2, 8]: 29 ± 1.7 µM
- EC50 [2, 9]: 12.6 µM

Molecule: CN1CCN(C2=Nc3ccccc3Oc3ccc(Cl)cc32)CC1 [lozapine]
- PLD induction (result in words) [2]: positive

Molecule: COc1ccc2c(c1)c(CCN1CCOCC1)c(C)n2C(=O)c1cccc(Cl)c1Cl [GW405833]
- Cell Viability Efficacy (maximum inhibition of cell viability) [3]: 70.0±58.7%
- Primary Screen Efficacy [2]: 49.4%

Molecule: CN(C)CCC=C1c2ccccc2CCc2ccccc21 [Amitriptyline]
- EC50 [1]: 15 µM
- EC50 [2, 8]: 4.6 ± 0.5 µM
- EC50 [2, 9]: 10 µM

Molecule: COc1ccccc1N1CCN(CCN(C(=O)c2ccc(F)cc2)c2ccccn2)CC1 [p-MPPF]
- PLD induction (result in words) [2]: significantly induced PLD formation

Molecule: NC12CC3CC(CC(C3)C1)C2 [Amantadine]
- EC50 ([4]; I13-35 cells): 239 µM
- EC50 [2, 8]: 3.9 ± 4.5 µM
- EC50 [2, 9]: 0.9 µM

Molecule: COCC(=O)O[C@]1(CCN(C)CCCc2nc3ccccc3[nH]2)CCc2cc(F)ccc2[C@@H]1C(C)C [Mibefradil]
- Cell Viability Efficacy (maximum inhibition of cell viability) [3]: 97.0±3.3%
- IC50 [3]: 25.2 ± 4.1 µM
- EC50 [2, 8]: 10.4 ± 3.3 µM
- EC50 [2, 9]: 4.5 µM

Molecule: COc1cc2nc(N3CCCN(C)CC3)nc(NC3CCN(Cc4ccccc4)CC3)c2cc1OC [BIX 01294]
- Cell Viability Efficacy (maximum inhibition of cell viability) [3]: 98% and 98.6±3.3%
- IC50 [3]: 10 ± 1.6 µM
- EC50 [2, 8]: 1.6 ± 0.4 µM
- EC50 [2, 9]: 3.5 µM

Molecule: CC(N)Cc1c[nH]c2ccc(OCc3cccs3)cc12 (centres unmarked) [BW 723C86]
- Cell Viability Efficacy (maximum inhibition of cell viability) [3]: 37.7±11.9%
- Primary Screen Efficacy [2]: 62.2%

Molecule: CN1C[C@H](CNC(=O)OCc2ccccc2)C[C@@H]2c3cccc4c3c(cn4C)C[C@H]21 [Metergoline]
- Cell Viability Efficacy (maximum inhibition of cell viability) [3]: 127.9±4.1%
- IC50 [3]: 62.8 µM
- EC50 [2, 8]: 5.8 ± 1.3 µM
- EC50 [2, 9]: 2.5 µM

Molecule: CCN(CC)CCCC(C)Nc1ccnc2cc(Cl)ccc12 (centres unmarked) [Chloroquine]
- EC50 [4]: 11.8 µM
- EC50 [2, 8]: 23.6 µM
- EC50 [2, 9]: 28.2 µM

Molecule: CC(=O)N1CCN(c2ccc(OCC3COC(Cn4ccnc4)(c4ccc(Cl)cc4Cl)O3)cc2)CC1 (centres unmarked) [Ketoconazole]
- Literature-Reported: Active at (concentration) [1]: Active at 8.3 µM
- EC50 [2, 8]: 5.4 ± 2 µM
- EC50 [2, 9]: 2.8 µM

Molecule: C=C[C@H]1C[N@@]2CC[C@H]1C[C@@H]2[C@@H](O)c1ccnc2ccc(OC)cc12 [Quinidine]
- EC50 [1]: 25 µM
- EC50 [2, 8]: 13.4 ± 2 µM
- EC50 [2, 9]: 15.8 µM

Molecule: COc1ccc(NC(=O)c2ccc(-c3ccc(-c4noc(C)n4)cc3C)cc2)cc1N1CCN(C)CC1 [GR 127935]
- Cell Viability Efficacy (maximum inhibition of cell viability) [3]: 106.7±13.6%
- IC50 [3]: 42.6 ± 10.3 µM
- PLD induction (result in words) [2]: significantly induced PLD formation
- EC50 [2, 8]: 0.8 µM
- EC50 [2, 9]: 6.3 µM

Molecule: OC(CN1CCC(Cc2ccc(F)cc2)CC1)c1ccc(Cl)cc1 (centres unmarked) [Eliprodil]
- Cell Viability Efficacy (maximum inhibition of cell viability) [3]: 24.6±2.1%
- IC50 [3]: 26.5 ± 2.2 µM
- EC50 [2, 8]: 9 ± 5 µM
- EC50 [2, 9]: 10 µM

Molecule: CC(C)[C@H]1c2ccc(F)cc2CC[C@@]1(CCN(C)CCCc1nc2ccccc2[nH]1)OC(=O)C1CC1 [NNC 55-0396]
- Cell Viability Efficacy (maximum inhibition of cell viability) [3]: 106% and 106.3±4.3%
- Primary Screen Efficacy [2]: 91.6%

Molecule: CCOC(=O)N1CCC(=C2c3ccc(Cl)cc3CCc3cccnc32)CC1 [Loratadine]
- Literature-Reported: Active at (concentration) [1]: Active at 16 µM

Molecule: CNCCCN1c2ccccc2CCc2ccccc21 [Desipramine]
- EC50 ([4]; I13-35 cells): 9.1 µM
- EC50 [2, 8]: 5.1 ± 1.1 µM
- EC50 [2, 9]: 11.2 µM

Molecule: Cc1c2ccncc2c(C)c2c1[nH]c1ccccc12 [Ellipticine]
- Cell Viability Efficacy (maximum inhibition of cell viability) [3]: 102.3±4.0%
- IC50 [3]: 29.8 ± 2.4 µM
- EC50 [2, 8]: 9 ± 3.3 µM
- EC50 [2, 9]: 5 µM

Molecule: Cl.Cl.OCCN1CCN(CC/C=C2/c3ccccc3Sc3ccc(C(F)(F)F)cc32)CC1 [cis-(Z)-Flupenthixol]
- Cell Viability Efficacy (maximum inhibition of cell viability) [3]: 131.7±6.4%
- PLD induction (result in words) [2]: significantly induced PLD formation
- Primary Screen Efficacy [2]: 37.3%

Molecule: CC(CCc1ccccc1)NCC(O)c1ccc(O)c(C(N)=O)c1 (centres unmarked) [Labetalol]
- EC50 [2, 8]: 24.8 ± 4.9 µM
- EC50 [2, 9]: 12.6 µM

Molecule: CC[C@]1(O)C[C@@H]2CN(CCc3c([nH]c4ccccc34)[C@@](C(=O)OC)(c3cc4c(cc3OC)N(C)[C@H]3[C@@](O)(C(=O)OC)[C@H](OC(C)=O)[C@]5(CC)C=CCN6CC[C@]43[C@@H]65)C2)C1 [Vinblastine]
- Cell Viability IC50 [3]: Inactive
- EC50 [2, 8]: 9.5 ± 5.5 µM
- EC50 [2, 9]: 12.6 µM

Molecule: OCCN1CCN(CCCN2c3ccccc3Sc3ccc(C(F)(F)F)cc32)CC1 [fluphenazine]
- PLD induction (result in words) [2]: positive

Molecule: CC(C)(C)c1ccc(C(=O)CCCN2CCC(OC(c3ccccc3)c3ccccc3)CC2)cc1 [Ebastine]
- HERG channel block [7]: blocking
- PLD induction (result in words) [2]: significantly induced PLD formation

Molecule: NC(N)=NC(=O)c1nc(Cl)c(N2CCCCCC2)nc1N [5-(N,N-hexamethylene) amiloride]
- Cell Viability Efficacy (maximum inhibition of cell viability) [3]: 40.7±4.9%
- Primary Screen Efficacy [2]: 52.8%

Molecule: N=C(N)c1ccc(OCCCCCOc2ccc(C(=N)N)cc2)cc1 [Pentamidine]
- EC50 [1]: 8.3 µM
- EC50 [2, 8]: 2.8 ± 2.4 µM
- EC50 [2, 9]: 1.4 µM

— publication PMC4550094 (Journal of biomolecular screening, 2013)
